In brackets after ≈: the same amount, converted by molar mass. Several values for one entry are separate records, joined by “and”; a condition that tells them apart may be missing. Identical values can stand only once.
Experiments:
[1] = physchem; conditions: for solubility at 24 h: 25 °C; for solubility at 24 h / solubility / solubility at 3 h: pH 7.4, aqueous buffer, kinetic from dmso stock
Procedure: The turbid solution was delivered to the filter plate, agitated for a specific time period and then filtered. The concentration of dissolved compound in the filtrate was determined by uv spectroscopy and referred to pre-constructed calibration curves for solubility determination.
(§1) Determination of aqueous solubility was carried out on Multiscreen® Solubility filter plates (Millipore-MSSLBPC10) from Millipore Corporation (MA, USA). The protocol (PC2445EN00, Millipore Corporation) was followed. Briefly, various concentrations of the test compound were prepared in Universal buffer (pH 7.4)/acetonitrile/DMSO. The UV absorbances of these solutions were obtained at a pre-determined wavelength and used to construct a calibration curve for the test compound. Next, a stock solution of the test compound in DMSO was prepared at a known concentration, diluted with Universal buffer (pH 7.4), dispensed into wells in the Multiscreen Solubility filter plate, and agitated for a period of time. The suspension is then filtered, the filtrate collected and diluted with acetonitrile to give the same solvent composition used to prepare the calibration solutions. The absorbance of the diluted filtrate was then read at the predetermined wavelength and the concentration of the filtrate (taken here to be equivalent to the solubility of the test compound) was determined from the calibration curve.
as §1, with “24 hours at room temperature (25 deg C.). […]” for “a period of time.”, “was” for “is then”, “was” for “was then”, “(equivalent” for “(taken here to be equivalent”, “curve. […] LCMS determinations were made on an Agilent 1200 Series HPLC linked to a AB Sciex Instruments 3200 Q TRAP LC/MS/MS. Separations were carried out on a Phenomenex Luna column [3u, C18(2), 100A, 5×4.6 mm]. […] Quantification was based on the ratio of peak areas of the daughter ion and the mother ion (M+H), normalized against the same ratio obtained for the internal standard. The solubility determinations were carried out in triplicates or more from two different stock solutions.” for “curve.”

[2] = In vitro stability in rat liver microsomes; format: in vitro ADME; conditions: for Half-life (min) / Intrinsic Clearance (μL/min/mg): NADPH; for half-life / microsomal CLint: male, pooled rat liver microsomes, pH 7.4, NADPH; for microsomal CLint: read-out: Intrinsic Clearance
Procedure: The mixture was preincubated for 5 min at 37° C. in a shaking water bath, after which the reaction was initiated by adding […] of 10 mM NADPH (freshly prepared in phosphate buffer) to give a final concentration of 1 mM NADPH in the mixture. Aliquots of 50 μL were withdrawn immediately on addition of NADPH (time 0) and subsequently at 5, 15, 30 and 45 min. […] The mixture was then centrifuged at 10,000×g to remove the protein and the content of the test compound in the supernatant was subsequently measured by LCMS.
For each test compound, the metabolic stability of a positive control, midazolam (5 μM) which is a known cytochrome P450 substrate, was concurrently determined to evaluate the adequacy of the experimental conditions. The stability of the test compound to microsomal degradation in the absence of NADPH was also monitored.
Separations were made on a C18 column (Luna 3u C18(2) 100A column (2.0×50 mm, i.d., 3 μM, Phenomenex, Aschaffenburg, Germany or Eclipse Plus C18 column, 4.6×150 mm, i.d., 3.5 μM Agilent Technologies, Palo Alto, Calif., USA) with a security guard cartridge (3.0×4 mm, Agilent Technologies, Palo Alto, Calif., USA). Mobile phase was 0.1% formic acid in acetonitrile-water as mobile phase. Flow rate was set at 0.2 or 0.6 mL/min and the column temperature was at 30° or 40° C. 2 or 5 μL full loop sample injection was used.
Data processing was performed with Analyst™ 1.4.2 software package (Applied Biosystems, MA., USA). The corresponding MRM transition of this candidate was selected and used for peak configuration in Analyst 1.4.2 for semi-quantitation. The peak areas of test compound at different time points were expressed as a % of the peak area of test compound at time=0 min. The resulting % of intact (or remaining) test compound (average of 3 measurements with SD) was plotted against incubation time drug (Figure xx). In vitro half life (T1/2, min) was calculated from Equation 3 (Lu C, Li P, Gallegos R, Uttamsingh V, Xia C Q, Miwa G T, et al. Comparison of intrinsic clearance in liver microsomes and hepatocytes from rats and humans: evaluation of free fraction and uptake in hepatocytes. Drug Metab Dispos 2006; 34: 1600-5). T1/2=0.693/k(min) Equation 3: Where k is the slope of the plot Estimated in vitro clearance was determined from Equation 4: CLint, in vitro=V×0.693/T½ Equation 4: where V (μL/mg)=Volume of incubation/amount of microsomal protein in the incubation (μL/mg) Ames Test for Mutagenicity

| SMILES | solubility at 24 h [1] | Aqueous Solubility (pH 7.4) 24 hours ([1]; 24 h, pH 7.4) | solubility [1] [µg/mL] | solubility at 3 h [1] [µM] | Half-life (min) [2] | Intrinsic Clearance (μL/min/mg) [2] | half-life [2] [min] | microsomal CLint [2] [µL/min/mg] | Solubility (μM) ([1]; 24 h, pH 7.4) |
| --- | --- | --- | --- | --- | --- | --- | --- | --- | --- |
| CCCCCCCCn1cc(CN(CC)CC)c2cc(-c3cnc(N)nc3)ccc21 [Compound 8-12, 5-(3-Diethylaminomethyl-1-octyl-1H-indol-5-yl)-pyrimidin-2-ylamine] | 156 µM and 64 µg/mL | 155.9 (6.4) μM | ~65 (≈ 159 µM) | 166 (≈ 67.7 µg/mL) | 11.3 (0.4) min | 204.0 (9.0) μL/min/mg | 11.3 | 204 | – |
| CCCCCCCCn1c2c(c3cc(-c4cnc(N)nc4)ccc31)CN(C)CC2 [Compound 305, 8-(2′-amino-pyrimidin-5′-yl)-2-methyl-5-n-octyl-1,2,3,4-tetrahydropyrido[4,3-b]indole] | 40.6 µM (≈ 15.9 µg/mL) | – | 20 (≈ 51.1 µM) | 49.5 (≈ 19.4 µg/mL) | – | – | 31.6 | 76.6 | 40.6 (1.75) μM |
| CCCCCCCCn1cc(CC(N)=O)c2cc(-c3cccc(C)c3)ccc21 [Cysmethynil, 2-[5-(3-methylphenyl)-1-octyl-1H-indolo-3-yl]acetamide, reference compound] | < 1 µM | – | – | < 1 | 44.8 (8.0) min | 53.6 (9.0) μL/min/mg | 44.8 | 53.6 | – |

From US9422238B2, “ICMT inhibitors” (National University of Singapore, priority 2012, dated 2016)
